# Reference: ChEMBL document CHEMBL1201862, “PubChem BioAssay data set” (2004)
# The source made the active and inactive calls.
# Columns and labels:
# Vero [1] = assay: host cell viability loss, Vero E6 – synthesized analogs, cytotoxicity control for West Nile virus antiviral project, SAR follow-up (AID 2244); format: functional; details: Chlorocebus sabaeus
# Vero [2] = assay: Vero 76 cell viability after compound exposure – Vero 76 cells, synthesized analogs, cytotoxicity control for West Nile virus antiviral project, SAR follow-up (AID 2414); format: functional; details: Chlorocebus sabaeus
# [3] = A Cell Based Assay for the Identification of Probe candidate Compounds with Anti- Venezuelan Equine Encephalitis virus. [Related pubchem assays: 2409, 2419, 1621, 2238, 2405, 2024, 2065, 2402, 2414, 1635, 1650, 2244 ]; format: functional
# Vero [4] = assay: antiviral protection of cells from WNV – synthesized analogs, SAR follow-up (AID 2238); format: functional, cell-based; details: Chlorocebus sabaeus
# Vero [5] = assay: inhibition of WNV-induced cytopathic effect – cell-based, CPE readout (AID 1621); format: functional; details: Chlorocebus sabaeus
# Vero [6] = assay: Vero cell viability after compound exposure – synthesized analogs, set II, cytotoxicity control for West Nile virus antiviral project, SAR follow-up (AID 2402); format: functional; details: Chlorocebus sabaeus
# Vero [7] = assay: antiviral activity against WNV, CPE read-out – cell-based (AID 2419); format: functional; details: Chlorocebus sabaeus
# [8] = target: Lytic switch protein BZLF1 (Epstein-Barr virus (strain B95-8) (HHV-4) (Human herpesvirus 4), UniProt P03206); assay: inhibition of BZLF1 ZTA DNA binding – biochemical, fluorescence polarization, Epstein-Barr virus, 1536-well, counter-screen for EBNA-1 inhibitor project, dose response (AID 2377); design: species or system human gammaherpesvirus 4;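 further: fluorescence polarization of Cy5-labelled ZRE DNA probe bound by purified Zta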
# Sequence of Lytic switch protein BZLF1 (P03206 whole entry): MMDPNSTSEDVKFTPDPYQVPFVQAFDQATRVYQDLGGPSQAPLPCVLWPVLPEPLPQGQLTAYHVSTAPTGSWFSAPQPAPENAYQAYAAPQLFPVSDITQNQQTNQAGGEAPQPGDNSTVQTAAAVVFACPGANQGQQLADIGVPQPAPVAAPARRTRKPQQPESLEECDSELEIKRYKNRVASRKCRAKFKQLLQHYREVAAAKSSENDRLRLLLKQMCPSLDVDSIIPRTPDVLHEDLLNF
# [9] = target: Epstein-Barr nuclear antigen 1 (Epstein-Barr virus (strain B95-8) (HHV-4) (Human herpesvirus 4), UniProt P03211); assay: inhibition of EBV nuclear antigen 1 DNA binding – biochemical, fluorescence polarization, 1536-well, dose response (AID 2381); design: species or system human gammaherpesvirus 4;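 further: fluorescence polarization of a Cy5 DNA probe bound by EBNA-1 protein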
# Sequence of Epstein-Barr nuclear antigen 1 (P03211 whole entry): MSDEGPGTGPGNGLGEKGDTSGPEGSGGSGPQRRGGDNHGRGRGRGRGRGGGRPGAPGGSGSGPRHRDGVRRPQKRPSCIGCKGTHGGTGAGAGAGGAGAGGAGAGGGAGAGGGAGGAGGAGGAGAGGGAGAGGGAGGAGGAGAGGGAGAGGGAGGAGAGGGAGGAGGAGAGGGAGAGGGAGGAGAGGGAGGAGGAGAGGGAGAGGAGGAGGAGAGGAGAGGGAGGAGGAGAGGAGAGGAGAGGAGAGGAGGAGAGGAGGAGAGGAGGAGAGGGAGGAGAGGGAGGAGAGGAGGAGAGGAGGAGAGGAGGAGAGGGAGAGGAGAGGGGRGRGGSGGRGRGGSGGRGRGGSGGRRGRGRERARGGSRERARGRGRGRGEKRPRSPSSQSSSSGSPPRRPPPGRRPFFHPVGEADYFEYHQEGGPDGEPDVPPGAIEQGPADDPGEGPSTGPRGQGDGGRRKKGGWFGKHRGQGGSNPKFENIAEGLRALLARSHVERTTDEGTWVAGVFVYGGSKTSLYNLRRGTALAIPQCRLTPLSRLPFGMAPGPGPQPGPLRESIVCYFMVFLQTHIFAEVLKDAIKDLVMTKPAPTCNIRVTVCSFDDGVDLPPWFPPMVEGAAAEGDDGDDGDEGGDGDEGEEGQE
# [10] = target: Acyl-homoserine lactone acylase PvdQ (Pseudomonas aeruginosa (strain LESB58), UniProt Q9I194); assay: PvdQ acylase enzyme activity blockers – biochemical, fluorescence, plate reader and imaging, cherry-picks, dose response (AID 493231)
# Sequence of Acyl-homoserine lactone acylase PvdQ (Q9I194 24-193 limits assumed): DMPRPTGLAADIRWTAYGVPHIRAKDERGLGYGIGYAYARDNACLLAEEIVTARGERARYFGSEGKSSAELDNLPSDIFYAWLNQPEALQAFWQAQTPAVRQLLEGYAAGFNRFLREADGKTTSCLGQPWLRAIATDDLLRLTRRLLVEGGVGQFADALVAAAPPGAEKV
# Sequence of Acyl-homoserine lactone acylase PvdQ (Q9I194 217-762 limits assumed): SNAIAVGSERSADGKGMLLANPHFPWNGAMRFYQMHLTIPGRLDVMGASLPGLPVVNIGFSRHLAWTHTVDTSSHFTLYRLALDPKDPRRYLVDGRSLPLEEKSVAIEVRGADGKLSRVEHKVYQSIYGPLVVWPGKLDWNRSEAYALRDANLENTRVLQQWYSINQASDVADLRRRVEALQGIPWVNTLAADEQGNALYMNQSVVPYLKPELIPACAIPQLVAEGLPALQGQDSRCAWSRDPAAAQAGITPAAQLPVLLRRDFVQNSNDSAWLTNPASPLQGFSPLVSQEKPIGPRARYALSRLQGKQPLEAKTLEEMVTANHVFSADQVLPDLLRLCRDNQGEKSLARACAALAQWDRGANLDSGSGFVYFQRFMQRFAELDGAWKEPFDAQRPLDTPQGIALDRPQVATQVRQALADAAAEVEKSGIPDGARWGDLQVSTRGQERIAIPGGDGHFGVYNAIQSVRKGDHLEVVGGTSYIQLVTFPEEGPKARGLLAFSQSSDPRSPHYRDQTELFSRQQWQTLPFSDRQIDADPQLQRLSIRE
# [11] = target: Dual specificity protein phosphatase 3 (Homo sapiens, UniProt P51452); assay: inhibition constants for human DUSP3 – biochemical, colorimetric, SAR follow-up (AID 2004)
# Sequence of Dual specificity protein phosphatase 3 (P51452 whole entry): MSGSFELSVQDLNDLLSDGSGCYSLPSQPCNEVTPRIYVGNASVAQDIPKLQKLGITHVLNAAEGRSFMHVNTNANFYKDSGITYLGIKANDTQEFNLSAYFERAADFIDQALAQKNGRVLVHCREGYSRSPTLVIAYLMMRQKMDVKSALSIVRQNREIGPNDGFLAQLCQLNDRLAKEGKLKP
# [12] = target: Scavenger receptor class B member 1 (Mus musculus, UniProt Q61009); assay: mouse SR-BI DiI-HDL uptake blockers – ldlA[mSR-BI] cells, fluorescence, cherry pick, dose response (AID 493194); format: functional, cell-based;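 further: cellular uptake of fluorescent DiI-labeled HDL measured as cell fluorescence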
# Sequence of Scavenger receptor class B member 1 (Q61009 whole entry): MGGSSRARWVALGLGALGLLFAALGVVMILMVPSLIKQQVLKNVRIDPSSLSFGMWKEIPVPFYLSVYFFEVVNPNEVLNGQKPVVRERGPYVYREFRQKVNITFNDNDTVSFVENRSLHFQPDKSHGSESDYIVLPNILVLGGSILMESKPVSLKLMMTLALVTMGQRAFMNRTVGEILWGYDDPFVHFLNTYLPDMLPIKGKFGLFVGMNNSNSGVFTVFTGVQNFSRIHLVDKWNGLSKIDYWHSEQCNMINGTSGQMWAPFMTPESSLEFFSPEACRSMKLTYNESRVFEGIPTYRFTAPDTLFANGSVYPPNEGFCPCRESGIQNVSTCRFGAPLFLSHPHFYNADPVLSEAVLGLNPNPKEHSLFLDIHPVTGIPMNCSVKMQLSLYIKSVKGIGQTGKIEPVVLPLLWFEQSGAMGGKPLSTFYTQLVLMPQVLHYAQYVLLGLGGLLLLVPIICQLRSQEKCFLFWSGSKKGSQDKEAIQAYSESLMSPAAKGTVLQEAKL
# [13] = antiviral protection against BTV-induced cell death – arbovirus, BSR cells, confirmation (AID 1250); format: functional;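 further: protection from viral cytopathic effect measured as cell viability by ATP luminescence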
smiles,measurement,setting,value
CN(C)CCCN=C(S)N1CCN(c2nc(-c3ccccc3)cs2)CC1,CC50,Vero [1],25 µM (active)
same,CC50,Vero [2],13.9 µM (active)
same,IC50,[3],6.88 µM (active)
same,IC50,Vero [4],> 20 µM (active)
same,IC50,Vero [5],17.5 µM (active)
same,CC50,Vero [6],15.1 µM (active)
same,IC50,Vero [7],> 12.5 µM (active)
COc1ccc(NC(=O)COc2ccc3c(C)cc(=O)oc3c2)cc1S(=O)(=O)N1CCCCC1,IC50,[8],> 111 µM (not active)
same,IC50,[9],5.29 µM (active)
N#CC(c1cccc(Cl)c1)c1ncc(C(F)(F)F)cc1Cl (stereo not drawn),AC50,[10],2.74 µM (active)
O=C1NC(=S)N(c2ccc(Cl)cc2)C(=O)/C1=C/c1ccc(-c2ccccc2C(=O)O)o1,Ki,[11],36.6 µM (inactive)
COc1cc(NC(=O)c2cc(-c3ccccc3Cl)on2)cc(OC)c1OC,AC50,[12],32 µM (active)
Cc1nc2c(C(=O)NCCc3ccccc3Cl)cnn2c(O)c1Cl,IC50,[13],23.9 µM (active)
